# Test results reported in patent US9067974B2, “Polymyxin derivatives and uses thereof” (priority 2006, dated 2015).
# Several values for one entry are separate records, joined by “and”; a condition that tells them apart may be missing. Equal entries are not always repeated.
# Tests used:
# E. coli IH3080 (K1:O18) [1] = test: Experimental E. coli peritonitis model in mice; format: in vivo; conditions: 5 mg/kg subcutaneous
# Description: A suspension of E. coli IH3080 (K1:O18) in saline (0.9% NaCl) was prepared from an overnight culture on a blood agar plate (Statens Serum Institut, Copenhagen, Denmark). All mice (female NMR1 from Harlan Scandinavia, Allerød, Denmark; weight, 25-30 g) were inoculated intraperitoneally with 0.5 ml of the suspension containing 0.96×10^6 CFU per ml in the lateral lower quadrant of the abdomen. At 1 h, the CFU count was determined from three mice and the remaining mice (four mice per group) were treated with a subcutaneous injection of 0.2 ml of erythromycin solution in saline (corresponding to 5 mg/kg body weight) or NAB7061 solution in saline (corresponding to 5 mg/kg body weight), or both erythromycin and NAB7061 (corresponding to 5 mg/kg body weight of both drugs; given at two separate sites). Control group received two 0.2 ml injections of saline. At 4.5 h postinfection, all mice were anaesthetized with CO2 and sacrificed. Sterile saline (2 ml) was injected intraperitoneally and the abdomen was gently massaged before it was opened and the fluid sampled. Appropriate dilutions of the fluid were plated on blood agar plates, the plates were incubated overnight, and the colonies were counted.
# E. coli IH3080 (K1:O18) [2] = test: Well diffusion growth inhibition on LB agar plates (direct antibacterial activity); format: cell-based, Escherichia coli
# Method in brief: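 Growth inhibition of encapsulated E. coli IH3080 (K1:O18) was measured by well diffusion on LB agar plates. A suspension of about 10^8 cells/ml in 0.9% NaCl, made from an overnight LB agar culture, was spread over the plates and the excess removed. Once dry, five 2 mm wells were drilled per plate and test solutions added, with 0.9% NaCl as control. After 18 h at 37° C, inhibition zone diameters were measured and converted to surface areas in square mm.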
# [3] = test system: Acinetobacter baumannii ATCC 19606; test: as above; format: cell-based; conditions: A. baumannii ATCC 19606
# Method in brief: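 Direct antibacterial activity against Acinetobacter baumannii ATCC 19606 was measured by agar well diffusion on LB plates. The plates were flooded with a suspension of approx. 10^8 cells/ml in 0.9% NaCl, and the excess was removed. Once the surface dried, five wells of 2 mm diameter were drilled per plate. The wells were filled with test compound dissolved in 0.9% NaCl, with plain 0.9% NaCl as control. After 18 h at 37° C., inhibition zone diameters were measured and converted to growth inhibition areas in square mm.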
# [4] = test system: Pseudomonas aeruginosa ATCC 27853; test: as above; format: cell-based; conditions: Ps. aeruginosa ATCC 27853
# Method in brief: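 Pseudomonas aeruginosa ATCC 27853 was tested for direct antibacterial susceptibility by agar well diffusion. A suspension of about 10^8 cells/ml in 0.9% NaCl was spread over LB agar and the excess removed. After drying, 2 mm wells were drilled and filled with compound dissolved in 0.9% NaCl, with NaCl alone as control. Plates were incubated 18 h at 37° C, and inhibition zone diameters were measured and converted to areas in square mm.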
# E. coli ATCC25922 = test: as above; format: cell-based, Escherichia coli
# Description: (§1) From an overnight-grown culture of IH3080 on LB agar, a suspension of approx. 10^8 cells/ml was prepared in 0.9% NaCl. Aliquots of this suspension were then pipetted on the agar plates and the plates were gently shaken to spread the suspension evenly on the entire surface of the plate. Thereafter, the unabsorbed part of the suspension was removed by using a Pasteur pipette. After the surface had dried, small wells (diameter, 2 mm) were drilled on the plates (five wells per plate) by using a sterile sharp-edged narrow metal tube, single-use pipette tip, and vacuum suction. […] Controls included 0.9% NaCl solution without the compound to be tested. The plates were then incubated for 18 h at 37° C. whereafter the diameters of growth inhibition zones around each well were measured; the diameter of the well itself was not reduced. Finally, the diameters were converted to surface areas of growth inhibition (in square mm).
# (§2) The susceptibility of eleven Gram-negative bacterial strains (nine different species) to NAB734 and polymyxin B was compared by using the susceptibility determination method described in Example 2. The strains included those belonging to the species of Serratia marcescens and Proteus mirabilis, both species generally known to be resistant to polymyxin. Furthermore, the susceptibility determination was also performed by using the Gram-positive bacterium, Staphylococcus aureus, also generally known to be polymyxin-resistant. Ten of the strains originated from ATCC (American Type Culture Collection, Manassas, Va., U.S.A.), and one from CCUG (Culture Collection of University of Gothenburg, Sweden). The source of E. coli IH3080 has been described in Example 2. Polymyxin B sulfate was from Sigma-Aldrich (St. Louis, Mo., USA).
# K. pneumoniae ATCC13883 = test: as above; format: cell-based, Klebsiella pneumoniae
# Description: (§3) From an overnight-grown culture of IH3080 on LB agar, a suspension of approx. 10^8 cells/ml was prepared in 0.9% NaCl. Aliquots of this suspension were then pipetted on the agar plates and the plates were gently shaken to spread the suspension evenly on the entire surface of the plate. Thereafter, the unabsorbed part of the suspension was removed by using a Pasteur pipette. After the surface had dried, small wells (diameter, 2 mm) were drilled on the plates (five wells per plate) by using a sterile sharp-edged narrow metal tube, single-use pipette tip, and vacuum suction. Samples (4 μl and 10 μl) of the peptide solution in 0.9% NaCl (at concentrations of 1 μg/ml and 0.1 μg/ml) were then pipetted to the wells and the sample fluids were allowed to absorb. Controls included 0.9% NaCl solution without the compound to be tested. The plates were then incubated for 18 h at 37° C. whereafter the diameters of growth inhibition zones around each well were measured; the diameter of the well itself was not reduced. Finally, the diameters were converted to surface areas of growth inhibition (in square mm).
# as §2
# K. pneumoniae CCUG45421 = test: as above; format: cell-based, Klebsiella pneumoniae
# Description: as §1, §2
# K. oxytoca ATCC13182 = test: as above; format: cell-based, Klebsiella oxytoca
# Description: as §3, §2
# E. cloacae ATCC23355 = test: as above; format: cell-based, Enterobacter cloacae
# Description: as §3, §2
# C. freundii ATCC8090 = test: as above; format: cell-based, Citrobacter freundii
# Description: as §3, §2
# S. marcescens ATCC8100 = test: as above; format: cell-based, Serratia marcescens
# Description: as §3, §2
# P. mirabilis ATCC29906 = test: as above; format: cell-based, Proteus mirabilis
# Description: as §3, §2
# S. aureus ATCC 25923 = test: as above; format: cell-based, Staphylococcus aureus
# Description: as §1, §2
# E. coli IH3080 = test: Sensitization to rifampin: well diffusion growth inhibition on LB plates containing rifampin; format: cell-based, Escherichia coli; conditions: 4 μg of compound
# A. baumannii ATCC 19606 = test: as above; format: cell-based, Acinetobacter baumannii; conditions: 4 μg of compound
# [5] = test system: Ps. aeruginosa ATCC 27853; test: as above; format: cell-based, Pseudomonas aeruginosa; conditions: 4 μg of compound
# [6] = biological target: brush-border membrane (BBM) from the renal cortex; test: Inhibition of [3H] gentamycin binding to brush-border membrane vesicles; design: species or system rats; conditions: 20 μM [3H] gentamycin; 60 min at 4° C.; rat renal cortex BBM vesicles
# Text: The binding of the compounds according to this invention to isolated brush-border membrane (BBM) from the renal cortex can be measured indirectly by measuring their ability to inhibit the binding of radiolabelled gentamycin to BBM. Accordingly, the compounds according to this invention that have less affinity to BBM than for example polymyxin B inhibit the binding of radiolabelled gentamycin to a lesser degree than does polymyxin B.
# BBM was isolated from the renal cortex of male albino rats by using the Mg^2+/EGTA precipitation technique as described by Nagai et al. (2006). The binding of gentamycin was measured, according to the method described by Nagai et al. (2006) by incubating BBM vesicles (20 μl) in 10 mM HEPES (pH 7.5) with 100 mM mannitol in the presence of 20 μM [^3H] gentamycin (Amersham Biosciences Inc., Buckinghamshire, U.K.) with or without the compound to be tested or a positive control. After an incubation of 60 min at 4° C., 1 ml of ice-cold buffer described above was added, and the mixture was filtered through a Millipore filter (0.45 μm; HAWP). The filter was washed with the buffer and the radioactivity remaining in the filter was measured by using a liquid scintillation counter. The IC50 values were determined as in Nagai et al. (2006) using the Hill equation.
molecule,measurement,setting,value
CC[C@H]1OC(=O)[C@H](C)[C@@H](O[C@H]2C[C@@](C)(OC)[C@@H](O)[C@H](C)O2)[C@H](C)[C@@H](O[C@@H]2O[C@H](C)C[C@H](N(C)C)[C@H]2O)[C@](C)(O)C[C@@H](C)C(=O)[C@H](C)[C@@H](O)[C@]1(C)O [erythromycin],CFU counts in peritoneal fluid,E. coli IH3080 (K1:O18) [1]; 4.5 h postinfection ([…] after the treatment),8.9 (±6.4)×10^6 per ml
same,Factor of increase of the bacterial count,E. coli IH3080 (K1:O18) [1]; from 1 h to 4.5 h postinfection,12
OA-Thr-DSer-cy[Dab-Dab-DPhe-Thr-Dab-Dab-Thr-] [NAB 734],Antibacterial activity (growth inhibition area around a well),E. coli IH3080 (K1:O18) [2]; 4 μg of compound per well,113 square millimeters
same,Antibacterial activity (growth inhibition area around a well),E. coli IH3080 (K1:O18) [2]; 10 μg of compound per well,177 square millimeters and 154 square millimeters
same,Antibacterial activity (growth inhibition area around a well),[3]; 4 μg per well,38 square millimeters and 57 square millimeters
same,Antibacterial activity (growth inhibition area around a well),[3]; 10 μg per well,95 square millimeters and 79 square millimeters
same,Antibacterial activity (growth inhibition area around a well),[4]; 4 μg per well,13 square millimeters
same,Antibacterial activity (growth inhibition area around a well),[4]; 10 μg per well,50 square millimeters
same,Antibacterial activity (growth inhibition area around a well),E. coli ATCC25922; 4 μg per well,133 square millimeters
same,Antibacterial activity (growth inhibition area around a well),E. coli ATCC25922; 10 μg per well,177 square millimeters
same,Antibacterial activity (growth inhibition area around a well),K. pneumoniae ATCC13883; 4 μg per well,64 square millimeters
same,Antibacterial activity (growth inhibition area around a well),K. pneumoniae ATCC13883; 10 μg per well,113 square millimeters
same,Antibacterial activity (growth inhibition area around a well),K. pneumoniae CCUG45421; 4 μg per well,64 square millimeters
same,Antibacterial activity (growth inhibition area around a well),K. pneumoniae CCUG45421; 10 μg per well,104 square millimeters
same,Antibacterial activity (growth inhibition area around a well),K. oxytoca ATCC13182; 4 μg per well,95 square millimeters
same,Antibacterial activity (growth inhibition area around a well),K. oxytoca ATCC13182; 10 μg per well,143 square millimeters
same,Antibacterial activity (growth inhibition area around a well),E. cloacae ATCC23355; 4 μg per well,133 square millimeters
same,Antibacterial activity (growth inhibition area around a well),E. cloacae ATCC23355; 10 μg per well,177 square millimeters
same,Antibacterial activity (growth inhibition area around a well),C. freundii ATCC8090; 4 μg per well,133 square millimeters
same,Antibacterial activity (growth inhibition area around a well),C. freundii ATCC8090; 10 μg per well,177 square millimeters
same,Antibacterial activity (growth inhibition area around a well),S. marcescens ATCC8100; 4 μg per well,0 square millimeters
same,Antibacterial activity (growth inhibition area around a well),S. marcescens ATCC8100; 10 μg per well,0 square millimeters
same,Antibacterial activity (growth inhibition area around a well),P. mirabilis ATCC29906; 4 μg per well,0 square millimeters
same,Antibacterial activity (growth inhibition area around a well),P. mirabilis ATCC29906; 10 μg per well,0 square millimeters
same,Antibacterial activity (growth inhibition area around a well),S. aureus ATCC 25923; 4 μg per well,0 square millimeters
same,Antibacterial activity (growth inhibition area around a well),S. aureus ATCC 25923; 10 μg per well,0 square millimeters
same,Antibacterial activity in the presence of rifampin (growth inhibition area around a well),E. coli IH3080; rifampin 0 μg/ml,113 square millimeters
same,Antibacterial activity in the presence of rifampin (growth inhibition area around a well),E. coli IH3080; rifampin 0.1 μg/ml,154 square millimeters
same,Antibacterial activity in the presence of rifampin (growth inhibition area around a well),E. coli IH3080; rifampin 1.0 μg/ml,201 square millimeters
same,Antibacterial activity in the presence of rifampin (growth inhibition area around a well),A. baumannii ATCC 19606; rifampin 0 μg/ml,38 square millimeters
same,Antibacterial activity in the presence of rifampin (growth inhibition area around a well),A. baumannii ATCC 19606; rifampin 0.1 μg/ml,201 square millimeters
same,Antibacterial activity in the presence of rifampin (growth inhibition area around a well),A. baumannii ATCC 19606; rifampin 0.3 μg/ml,283 square millimeters
same,Antibacterial activity in the presence of rifampin (growth inhibition area around a well),[5]; rifampin 0 μg/ml,13 square millimeters
same,Antibacterial activity in the presence of rifampin (growth inhibition area around a well),[5]; rifampin 0.1 μg/ml,20 square millimeters
same,Antibacterial activity in the presence of rifampin (growth inhibition area around a well),[5]; rifampin 0.3 μg/ml,20 square millimeters
gentamycin [unlabelled gentamycin],IC50,[6],90.2 µM
